As a reminder, the AC50 is the midpoint of the concentration-response curve, whichever way the signal moves.

Some targets named below: Cytochrome P450 3A4 (Homo sapiens, UniProt P08684); Cytochrome P450 2C9 (Homo sapiens, UniProt P11712); Cytochrome P450 2D6 (Homo sapiens, UniProt P10635).
For the next data set, the target named is Cytochrome P450 2C19 (Homo sapiens, UniProt P33261). Briefly: Cytochrome panel assay with activity outcomes. Panel member name: p450-cyp2c19 Compounds with AC50 equal or less than 10 uM are considered active. Conditions: read-out: AC50. The class given is functional.
For another data set, the target named is T1, Cytochrome P450 1A2 (Homo sapiens, UniProt P05177).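 Note: PubChem cytochrome P450 panel assay, CYP1A2 panel member.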
T1 sequence (P05177 whole entry): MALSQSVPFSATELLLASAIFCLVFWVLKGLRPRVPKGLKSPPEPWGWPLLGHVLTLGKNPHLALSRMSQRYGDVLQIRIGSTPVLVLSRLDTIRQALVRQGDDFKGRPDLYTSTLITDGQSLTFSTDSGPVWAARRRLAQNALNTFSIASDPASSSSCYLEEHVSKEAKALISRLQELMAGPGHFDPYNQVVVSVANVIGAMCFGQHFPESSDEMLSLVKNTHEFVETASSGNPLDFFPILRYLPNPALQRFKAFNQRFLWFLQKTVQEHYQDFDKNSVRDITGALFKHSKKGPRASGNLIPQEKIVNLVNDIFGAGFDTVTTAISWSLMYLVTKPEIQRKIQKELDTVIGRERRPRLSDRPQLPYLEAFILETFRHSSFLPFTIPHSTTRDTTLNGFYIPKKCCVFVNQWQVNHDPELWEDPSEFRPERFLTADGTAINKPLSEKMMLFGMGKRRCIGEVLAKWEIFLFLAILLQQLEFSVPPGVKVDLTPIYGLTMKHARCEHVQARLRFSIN

The target in data set [1] is T2, Sentrin-specific protease 7 (Homo sapiens, UniProt Q9BQF6).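 Note: Luminescence-based dose-response confirmation of ultra-high-throughput screening hits, measuring inhibition of SENP7.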
T2 sequence (Q9BQF6 whole entry): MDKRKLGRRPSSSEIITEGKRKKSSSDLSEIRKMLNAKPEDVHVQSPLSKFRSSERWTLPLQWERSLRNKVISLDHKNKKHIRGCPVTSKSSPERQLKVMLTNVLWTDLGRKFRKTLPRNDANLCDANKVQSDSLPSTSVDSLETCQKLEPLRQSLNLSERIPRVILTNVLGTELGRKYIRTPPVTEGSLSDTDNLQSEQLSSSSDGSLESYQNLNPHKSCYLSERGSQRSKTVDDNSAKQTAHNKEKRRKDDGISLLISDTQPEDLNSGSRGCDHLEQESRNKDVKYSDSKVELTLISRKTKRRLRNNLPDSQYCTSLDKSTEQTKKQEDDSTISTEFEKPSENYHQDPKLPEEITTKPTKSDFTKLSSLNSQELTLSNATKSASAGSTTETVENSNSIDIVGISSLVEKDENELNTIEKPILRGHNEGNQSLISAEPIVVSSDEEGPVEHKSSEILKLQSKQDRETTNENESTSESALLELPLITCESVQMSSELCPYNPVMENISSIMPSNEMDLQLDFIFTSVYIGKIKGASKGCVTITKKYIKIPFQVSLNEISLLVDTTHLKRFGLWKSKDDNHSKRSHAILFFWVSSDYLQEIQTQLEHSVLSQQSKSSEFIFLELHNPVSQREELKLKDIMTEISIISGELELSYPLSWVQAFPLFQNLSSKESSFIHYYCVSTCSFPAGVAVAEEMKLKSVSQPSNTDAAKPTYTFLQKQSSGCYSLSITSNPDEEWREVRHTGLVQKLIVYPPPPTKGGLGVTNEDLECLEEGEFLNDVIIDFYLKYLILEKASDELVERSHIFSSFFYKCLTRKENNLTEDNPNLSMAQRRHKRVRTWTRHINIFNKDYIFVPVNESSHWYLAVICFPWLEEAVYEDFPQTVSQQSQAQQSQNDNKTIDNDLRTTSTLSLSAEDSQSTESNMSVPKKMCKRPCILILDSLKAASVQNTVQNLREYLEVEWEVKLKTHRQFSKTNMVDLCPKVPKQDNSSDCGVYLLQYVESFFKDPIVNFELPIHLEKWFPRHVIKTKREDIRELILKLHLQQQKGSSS
The class given is functional.

The target in data set [2] is T3, Sentrin-specific protease 8 (Homo sapiens, UniProt Q96LD8).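 Note: luminescence read-out of SENP8 inhibition, dose-response confirmation following an ultra-high-throughput screen.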
T3 sequence (Q96LD8 whole entry): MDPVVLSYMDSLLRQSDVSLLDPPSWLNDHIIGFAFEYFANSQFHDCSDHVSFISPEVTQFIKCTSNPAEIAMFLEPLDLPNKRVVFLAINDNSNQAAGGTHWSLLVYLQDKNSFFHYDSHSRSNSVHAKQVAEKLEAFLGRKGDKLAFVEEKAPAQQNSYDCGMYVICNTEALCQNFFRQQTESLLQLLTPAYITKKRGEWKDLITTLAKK
The class given is functional.

The next data set addresses T4, Caspase-3 (Homo sapiens, UniProt P42574).
T4 sequence (P42574 whole entry): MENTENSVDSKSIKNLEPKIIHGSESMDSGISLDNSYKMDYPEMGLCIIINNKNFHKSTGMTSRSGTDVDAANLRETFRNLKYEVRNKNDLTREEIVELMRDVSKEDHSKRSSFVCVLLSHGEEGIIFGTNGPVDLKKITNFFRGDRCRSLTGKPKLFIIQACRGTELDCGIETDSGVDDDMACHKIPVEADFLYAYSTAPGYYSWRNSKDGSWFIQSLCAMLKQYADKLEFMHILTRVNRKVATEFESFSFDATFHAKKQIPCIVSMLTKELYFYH
The class given is functional.

The target in data set [3] is T5, Polyadenylate-binding protein 1 (Homo sapiens, UniProt P11940). Put plainly: PABP1 MLLE–PAM2 interaction inhibitors, dose response, miRNA deadenylation inhibitor project, biochemical, fluorescence polarization, Cy5-PAM2 peptide, secondary (AID 602260). Conditions: read-out: IC50_Mean. The class given is functional.
Data set [4] concerns the target T6, Sentrin-specific protease 6 (Homo sapiens, UniProt Q9GZR1).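 Note: Luminescence-based dose-response confirmatory assay of SENP6 inhibition, following up an ultra-high-throughput screen.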
T6 sequence (Q9GZR1 whole entry): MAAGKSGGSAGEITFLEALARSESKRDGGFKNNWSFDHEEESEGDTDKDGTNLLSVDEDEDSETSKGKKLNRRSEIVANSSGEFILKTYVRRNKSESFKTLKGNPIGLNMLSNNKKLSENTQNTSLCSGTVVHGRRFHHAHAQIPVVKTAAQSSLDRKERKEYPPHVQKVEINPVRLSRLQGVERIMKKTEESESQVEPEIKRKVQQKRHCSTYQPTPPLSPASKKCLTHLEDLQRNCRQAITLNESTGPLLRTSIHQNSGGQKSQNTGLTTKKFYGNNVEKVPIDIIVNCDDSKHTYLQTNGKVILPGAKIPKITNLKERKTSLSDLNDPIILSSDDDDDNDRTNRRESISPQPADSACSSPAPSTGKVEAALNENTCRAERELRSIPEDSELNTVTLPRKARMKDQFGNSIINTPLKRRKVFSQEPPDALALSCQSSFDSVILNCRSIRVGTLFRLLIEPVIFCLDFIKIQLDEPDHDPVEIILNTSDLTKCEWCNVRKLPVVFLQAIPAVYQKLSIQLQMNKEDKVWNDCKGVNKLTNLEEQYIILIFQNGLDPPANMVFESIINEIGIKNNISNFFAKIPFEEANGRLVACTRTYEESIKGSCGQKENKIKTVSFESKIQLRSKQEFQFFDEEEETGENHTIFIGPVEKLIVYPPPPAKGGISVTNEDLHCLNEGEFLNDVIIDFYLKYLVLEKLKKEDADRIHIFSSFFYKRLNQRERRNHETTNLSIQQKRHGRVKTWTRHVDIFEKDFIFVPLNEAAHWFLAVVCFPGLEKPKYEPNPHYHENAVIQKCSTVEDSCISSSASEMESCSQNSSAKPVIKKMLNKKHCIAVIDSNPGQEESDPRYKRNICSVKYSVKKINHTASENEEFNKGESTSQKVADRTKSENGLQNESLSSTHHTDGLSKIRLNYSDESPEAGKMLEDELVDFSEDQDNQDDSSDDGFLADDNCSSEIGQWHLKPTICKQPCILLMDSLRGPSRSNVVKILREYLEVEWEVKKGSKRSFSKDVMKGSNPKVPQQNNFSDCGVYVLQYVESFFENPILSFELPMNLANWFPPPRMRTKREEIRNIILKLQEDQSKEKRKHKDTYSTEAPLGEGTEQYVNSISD
The class given is functional.

The target in data set [5] is T5, Polyadenylate-binding protein 1. Briefly: PABP1 MLLE–PAM2 binding inhibitor potency, dose response, biochemical, fluorescence polarization, FITC-PAM2 peptide (AID 602259). The class given is functional. Conditions: read-out: IC50_Mean. (Fluorescence polarisation rises when a labelled molecule tumbles more slowly, as on binding a larger partner.)
Data set [6] is described as follows: StAR promoter reporter inhibition counter-screen, dose response, counter-screen for LRH-1 inverse agonist project, cell-based, luminescence, luciferase reporter (AID 651969). The class given is functional. Background: The purpose of a counterscreen is to sort out artefacts and off-target activity.
Data set [7] deals with Nuclear receptor subfamily 5 group A member 2 (Homo sapiens, UniProt O00482). The class given is functional, cell-based.
Another data set addresses Steroidogenic factor 1 (Homo sapiens, UniProt Q13285). Put plainly: Counterscreen for inverse agonists of the liver receptor homolog-1 (LRH-1; NR5A2): Luminescence-based cell-based high throughput dose response assay to identify inverse agonists of the Steroidogenic Factor 1 Nuclear Receptor (SF1; NR5A1). The class given is functional.
Data set [8] is described as follows: cytotoxicity in HEK-293T cells, dose response, cytotoxicity control for TCR NF-kB inhibitor project, luminescence, T-cell screen hits (AID 489026).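 Note: cells exposed to compound about 14 hours before the viability readout.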 The class given is functional, cell-based.
The test system of the next data set is INS1. Put plainly: beta cell apoptosis inhibitors, cytokine rescue, dose response, luminescence, retest (AID 449756).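 Note: cell death triggered by IL-1 beta plus TNF-alpha plus IFN-gamma mixture; protective hits raise ATP signal compared with cytokine alone wells.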 The class given is functional, cell-based. The settings on record: Rattus norvegicus.
The nature of data set [9]: Luminescence Cell-Based Dose Retest to Confirm Inhibitors of Cancer Stem Cells. [Related pubchem assays (depositor defined):AID2717, AID2721]. The settings on record: Homo sapiens. The class given is functional.
For a further data set, the target named is Nonstructural protein 1 (Influenza A virus, UniProt Q194T2). The class given is functional, Influenza A virus (A/California/07/2009(H1N1)).

Active and inactive are the calls of the source.

Sequence of Cytochrome P450 2C19 (P33261 whole entry): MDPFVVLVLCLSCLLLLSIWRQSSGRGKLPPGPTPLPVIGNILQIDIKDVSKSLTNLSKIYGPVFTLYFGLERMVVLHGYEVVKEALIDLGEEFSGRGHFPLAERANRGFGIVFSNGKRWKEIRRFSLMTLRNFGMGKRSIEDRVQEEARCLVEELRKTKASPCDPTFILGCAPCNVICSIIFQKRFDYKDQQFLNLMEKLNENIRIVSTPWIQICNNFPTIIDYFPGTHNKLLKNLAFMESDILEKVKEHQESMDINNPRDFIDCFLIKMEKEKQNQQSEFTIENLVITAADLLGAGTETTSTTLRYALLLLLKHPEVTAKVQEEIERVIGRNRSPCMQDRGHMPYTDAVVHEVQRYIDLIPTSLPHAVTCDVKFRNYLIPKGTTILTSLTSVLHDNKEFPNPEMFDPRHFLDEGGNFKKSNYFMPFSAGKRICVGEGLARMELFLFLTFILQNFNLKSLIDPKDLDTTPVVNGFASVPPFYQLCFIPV
Sequence of Cytochrome P450 3A4 (P08684 whole entry): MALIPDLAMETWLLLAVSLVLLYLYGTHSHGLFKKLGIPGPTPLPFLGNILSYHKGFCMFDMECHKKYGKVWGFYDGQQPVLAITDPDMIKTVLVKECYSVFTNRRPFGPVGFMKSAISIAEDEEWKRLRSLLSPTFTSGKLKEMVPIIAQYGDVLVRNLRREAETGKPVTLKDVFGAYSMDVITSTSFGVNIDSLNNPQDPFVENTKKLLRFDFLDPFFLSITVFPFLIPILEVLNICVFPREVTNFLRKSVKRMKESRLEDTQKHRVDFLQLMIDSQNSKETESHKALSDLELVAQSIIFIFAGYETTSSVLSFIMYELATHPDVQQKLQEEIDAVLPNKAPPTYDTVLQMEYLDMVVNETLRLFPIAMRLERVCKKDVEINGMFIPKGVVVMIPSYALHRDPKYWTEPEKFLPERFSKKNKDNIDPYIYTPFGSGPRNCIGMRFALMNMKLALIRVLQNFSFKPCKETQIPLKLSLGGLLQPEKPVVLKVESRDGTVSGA
T5 sequence (P11940 whole entry): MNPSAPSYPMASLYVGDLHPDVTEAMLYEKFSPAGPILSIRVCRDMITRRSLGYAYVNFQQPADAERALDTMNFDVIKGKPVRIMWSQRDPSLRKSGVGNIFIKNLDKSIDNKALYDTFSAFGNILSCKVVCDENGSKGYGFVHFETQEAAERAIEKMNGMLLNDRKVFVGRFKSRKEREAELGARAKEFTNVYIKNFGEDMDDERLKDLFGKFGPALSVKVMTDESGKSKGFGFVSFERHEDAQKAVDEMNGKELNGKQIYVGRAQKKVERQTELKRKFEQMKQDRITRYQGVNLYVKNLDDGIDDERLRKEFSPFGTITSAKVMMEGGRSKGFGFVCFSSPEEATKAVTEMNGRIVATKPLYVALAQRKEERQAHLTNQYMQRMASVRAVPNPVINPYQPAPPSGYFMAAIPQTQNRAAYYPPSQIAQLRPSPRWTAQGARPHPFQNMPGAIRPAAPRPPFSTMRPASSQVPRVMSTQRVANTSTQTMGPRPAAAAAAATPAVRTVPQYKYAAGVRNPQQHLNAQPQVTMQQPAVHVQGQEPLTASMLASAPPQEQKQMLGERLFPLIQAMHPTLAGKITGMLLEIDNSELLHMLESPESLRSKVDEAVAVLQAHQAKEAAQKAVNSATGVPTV
Sequence of Cytochrome P450 2D6 (P10635 whole entry): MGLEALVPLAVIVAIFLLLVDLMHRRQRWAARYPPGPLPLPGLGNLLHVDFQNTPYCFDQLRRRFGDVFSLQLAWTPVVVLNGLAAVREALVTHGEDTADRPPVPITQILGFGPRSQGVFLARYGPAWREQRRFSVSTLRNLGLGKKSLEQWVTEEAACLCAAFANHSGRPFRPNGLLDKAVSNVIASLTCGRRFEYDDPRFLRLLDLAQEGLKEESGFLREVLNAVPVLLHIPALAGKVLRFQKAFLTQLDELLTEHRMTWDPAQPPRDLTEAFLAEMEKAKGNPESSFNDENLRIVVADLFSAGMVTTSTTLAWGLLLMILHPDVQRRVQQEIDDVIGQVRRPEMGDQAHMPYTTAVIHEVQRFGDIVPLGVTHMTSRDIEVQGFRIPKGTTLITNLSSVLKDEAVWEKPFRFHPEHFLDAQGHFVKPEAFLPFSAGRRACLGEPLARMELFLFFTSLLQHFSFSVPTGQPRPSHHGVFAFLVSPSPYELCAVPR
Sequence of Nuclear receptor subfamily 5 group A member 2 (O00482 whole entry): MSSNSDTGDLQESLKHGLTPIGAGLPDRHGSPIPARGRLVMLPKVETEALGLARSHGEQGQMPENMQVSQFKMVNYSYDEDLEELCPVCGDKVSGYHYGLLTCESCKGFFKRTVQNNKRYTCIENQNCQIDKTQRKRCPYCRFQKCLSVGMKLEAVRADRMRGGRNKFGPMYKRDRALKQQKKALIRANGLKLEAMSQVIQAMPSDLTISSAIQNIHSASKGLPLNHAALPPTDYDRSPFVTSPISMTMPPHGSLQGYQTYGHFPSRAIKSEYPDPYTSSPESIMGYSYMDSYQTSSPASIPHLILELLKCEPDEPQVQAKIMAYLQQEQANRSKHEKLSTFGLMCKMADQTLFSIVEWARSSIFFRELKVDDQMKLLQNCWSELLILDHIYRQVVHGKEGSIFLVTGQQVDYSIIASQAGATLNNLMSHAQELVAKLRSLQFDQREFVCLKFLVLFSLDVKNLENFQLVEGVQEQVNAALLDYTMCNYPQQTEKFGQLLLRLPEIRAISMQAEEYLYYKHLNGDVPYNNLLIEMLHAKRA
Sequence of Steroidogenic factor 1 (Q13285 whole entry): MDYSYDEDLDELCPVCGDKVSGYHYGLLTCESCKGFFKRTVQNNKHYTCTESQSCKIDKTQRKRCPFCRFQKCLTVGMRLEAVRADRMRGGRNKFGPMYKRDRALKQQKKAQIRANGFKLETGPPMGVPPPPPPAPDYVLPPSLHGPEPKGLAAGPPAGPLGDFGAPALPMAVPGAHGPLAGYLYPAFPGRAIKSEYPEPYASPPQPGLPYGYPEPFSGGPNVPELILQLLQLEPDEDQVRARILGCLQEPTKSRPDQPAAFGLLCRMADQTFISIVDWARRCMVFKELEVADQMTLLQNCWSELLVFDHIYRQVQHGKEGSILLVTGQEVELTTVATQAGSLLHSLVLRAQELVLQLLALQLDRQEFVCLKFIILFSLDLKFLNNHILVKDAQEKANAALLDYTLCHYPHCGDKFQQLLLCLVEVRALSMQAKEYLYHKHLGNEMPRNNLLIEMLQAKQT
Sequence of Cytochrome P450 2C9 (P11712 whole entry): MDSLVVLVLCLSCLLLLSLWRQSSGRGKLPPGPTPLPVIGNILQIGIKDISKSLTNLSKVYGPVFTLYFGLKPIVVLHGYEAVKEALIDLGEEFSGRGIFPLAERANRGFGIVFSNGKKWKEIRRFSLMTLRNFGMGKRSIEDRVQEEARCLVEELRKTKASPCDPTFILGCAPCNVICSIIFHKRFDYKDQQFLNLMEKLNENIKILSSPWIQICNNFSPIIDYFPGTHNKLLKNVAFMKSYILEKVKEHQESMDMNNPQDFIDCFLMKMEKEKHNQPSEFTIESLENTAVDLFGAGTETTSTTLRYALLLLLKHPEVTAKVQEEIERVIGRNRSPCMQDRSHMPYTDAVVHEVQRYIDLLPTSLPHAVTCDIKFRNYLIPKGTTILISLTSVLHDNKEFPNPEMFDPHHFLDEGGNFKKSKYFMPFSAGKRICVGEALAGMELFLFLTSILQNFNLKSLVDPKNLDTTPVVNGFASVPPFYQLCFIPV
Sequence of Nonstructural protein 1 (Q194T2 whole entry): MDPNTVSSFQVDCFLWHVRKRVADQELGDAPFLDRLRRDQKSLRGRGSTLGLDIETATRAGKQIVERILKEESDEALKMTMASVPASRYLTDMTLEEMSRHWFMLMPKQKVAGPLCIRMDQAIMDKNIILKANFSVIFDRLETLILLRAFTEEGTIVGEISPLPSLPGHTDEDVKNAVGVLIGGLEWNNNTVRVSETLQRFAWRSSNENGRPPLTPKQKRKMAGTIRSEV

Regarding `Oc1ccc2[nH]cc(CCCCN3CC=C(c4ccccc4)CC3)c2c1` [ROXINDOLE], the values for the AC50 entry on Cytochrome P450 3A4, on Cytochrome P450 2C9 and on Cytochrome P450 2C19 were “inconclusive”, 12.6 µM (inconclusive) and 20 µM (inconclusive), respectively.

In the case of `O=C(c1cccc(F)c1)N1CCC2(CC1)CN(c1cccc(-c3ccccc3)c1)C2`, the AC50 result at Cytochrome P450 3A4 was “inconclusive”; on Cytochrome P450 1A2 it was 12.6 µM (inconclusive).

Turning to `O=C(CCCN1C(=O)/C(=C/c2ccccc2Cl)SC1=S)NCCCN1CCOCC1`, the IC50 in data set [1] is 14.8 µM (active); in data set [2], 43.6 µM (active); on Caspase-3, 34.2 µM (active); in data set [3] it was > 66 µM (inactive); in data set [4], 36.7 µM (active); in data set [5], > 66 µM (inactive).

As to `CC(O)(c1cccc(F)c1)c1nc(-c2ccc(S(C)(=O)=O)cc2)cs1` (stereo not drawn), the IC50 in data set [6] was 35.9 µM (inactive); in [7], 10.3 µM (inactive); on Steroidogenic factor 1, 3.64 µM (active).

`COC(=O)c1ccc(NC(=O)CSc2nncn2-c2cccnc2)cc1`: the IC50 in data set [6] is 35.9 µM (inactive); in [7], 35.9 µM (inactive); at Steroidogenic factor 1, 14 µM (inactive).

As for `C/C(=N\NC(=O)c1cc(C)nc2ccccc12)c1ccccn1`, the results for the IC50 (in data set [8]; on Nonstructural protein 1) were > 80 µM (inactive) and 2.23 µM (active), respectively. The AC50 with INS1 was 0.626 µM (active); in [9], 3.37 µM (active).

Consider `O=C(Nc1ccc(Br)cc1)Nc1ccccc1Cl`, for which the IC50 was 7.21 µM (active) in [1], 26.8 µM (active) in [2], 24.6 µM (active) at Caspase-3 and 7.19 µM (active) in data set [4].

Take `O=C(Nc1cc(Cl)cc(Cl)c1)c1cccc(OC(F)F)c1`: the IC50 is 11.8 µM (active) in data set [1], 53.9 µM (active) in data set [2], > 100 µM (inactive) on Caspase-3 and 46.9 µM (active) in [4].

Regarding `Cn1c(=O)c(-c2ccccc2)nc2cnc(N3CCOCC3)nc21`, the half-maximal activity concentration (AC50) result at Cytochrome P450 3A4 is “inconclusive”; on Cytochrome P450 2C9 it was 39.8 µM (inconclusive); at Cytochrome P450 2C19, 39.8 µM (inconclusive).

With `COc1cccc(C(=O)Oc2ccc3ccc(O)cc3c2)c1`, the IC50 in data set [1] was 7.37 µM (active); in [2] it was 17 µM (active); on Caspase-3, 40.1 µM (active); in data set [4], 20.9 µM (active).

Take `c1ccc(Cn2nc(-c3ccccc3)nc2-c2ccccc2)cc1`: the IC50 in data set [1] was 8.63 µM (active); in data set [2], 30.4 µM (active); on Caspase-3 it was 32 µM (active); in data set [4], 25 µM (active).

On to `COc1ccc(C(=O)CNc2ccccc2Br)cc1`, for which the IC50 in [1] is 6.34 µM (active); in data set [2], 82.8 µM (active); at Caspase-3 it was 22 µM (active); in data set [4] it was 27.4 µM (active).

Take `CCOC(=O)C1=C(C)N=C2SC(C(=O)OC)=CC(=O)N2C1c1ccc(F)cc1` (stereo not drawn): the half-maximal activity concentration (AC50) result at Cytochrome P450 3A4 is “inconclusive”; at Cytochrome P450 1A2, 31.6 µM (inconclusive); at Cytochrome P450 2D6 it was 12.6 µM (inconclusive).

Turning to `O=C(c1ccco1)N1CCC2(CC1)CN(c1ccc(-c3ccccc3)cc1)C2`, the concentration at half-maximal activity (AC50) result at Cytochrome P450 3A4 is “inconclusive”; at Cytochrome P450 1A2 it was 1 µM (inconclusive); on Cytochrome P450 2C19, 0.158 µM (inconclusive).

With `COC(=O)N1CCC2(CC1)CN(c1ccccn1)C2`, the results for the AC50 entry at Cytochrome P450 3A4 and on Cytochrome P450 2D6 were “inconclusive” and 10 µM (inconclusive), respectively.

`Cc1cnc(CNc2cc(-c3ccccc3C)ncn2)cn1`: at Cytochrome P450 3A4, the AC50 entry was “inconclusive”.

Source of the values: ChEMBL document CHEMBL1201862, “PubChem BioAssay data set” (2004).
